Reference: US6624149B2, “Method for nucleic acid transfection of cells” (Genteric, Inc., priority 2000, dated 2003)
Values joined by “and” are separate entries in the source; they are usually repeats but may differ in a detail not shown here. Equal entries are not always repeated.

Test system: NIH 3T3 cells
Experiment: Cationic liposome-mediated transfection of cultured cells, luciferase assay
Assay type: cell-based, murine
Conditions: for Luciferase activity, Average / Luciferase activity, Trial 1 to Trial 4: 48 hours; for Luciferase activity, Trial 1 to Trial 4: individual trials
Procedure: In one embodiment, an appropriate mass of cationic lipid and the neutral lipid dioleoylphosphatidylethanolamine (DOPE) was added as solutions in chloroform to 1.9 mL sample vials to yield the desired molar ratio of cationic lipid:DOPE. The chloroform was removed via rotary evaporation at 37° C. The resulting thin lipid films were placed under vacuum overnight to insure that all traces of solvent have been removed. The lipid mixture was resuspended in 1 mL sterile water at 25° C. until the film is hydrated, and then vortex mixed to afford an emulsion. For the in vitro experiments, these emulsions were formulated as a cationic lipid concentration of 1 mM. For the in vivo experiments, the emulsions were formulated at a cationic lipid concentration of 3 mM.
NIH 3T3 cells were obtained from ATCC (CRL 1658), cultured in Dulbecco's Modified Eagle's Medium with ten percent calf serum, and plated on standard 24 well tissue culture plates 24 hours prior to transfection. Cells were approximately eighty percent confluent at the time of transfection.
NIH 3T3 cells were plated onto 24 well tissue culture plates as described in section 6.1.10. The growth media was removed via aspiration and the cells were washed once with 0.5 mL PBS/well. The liposome/transition metal/nucleic acid solutions were formed through sequential addition of appropriate amounts of DMEM (without serum), the liposome solution (1:1 N,N-[Bis(2-hydroxyethyl)]-N-methyl-N-[2,3-bis(tetradecanoyloxy)propyl] ammonium chloride (DMDHP):DOPE, zinc chloride, and the plasmid DNA pCMV.FOX.Luc.2. The amount of liposome solution used depended on the desired cationic lipid to DNA phosphate ratio. The addition of these substances was followed by thorough vortex mixing and incubation for 15 minutes at room temperature. A 200 microliter aliquot of the resultant transfection complex was added to each well (1 microgram DNA/well, n=4) and the cells were incubated for 4 hours, at 37° C. At this time, 500 microliters of DMEM+10% calf serum/well was added and the cells cultured for approximately 48 hours prior to lysis and analysis. The sample transfections were subsequently repeated a minimum of three times prior to lysis and analysis.
The presently claimed invention describes a new method using a combination of cationic lipid, transition metal enhancer and a nucleic acid of interest for gene delivery. The present invention provides a method that may enhance gene expression by improving the efficiency of gene delivery. This change in gene expression can be quantitated using various assays, such as the luciferase assay. de Wet et al., Molec. Cell Biol. 7:725, 1987. In in vitro experiments described herein in which a cationic lipid/transition metal enhancer/nucleic acid complex was used, the cells were lysed, using a lysis buffer, 48 hours post administration of the pCMV.FOX.Luc-2 containing solution. The lysis buffer contained 100 mM K2PO4 pH 7.0, 1 mM dithiothreitol, and 1% Triton X-100. A 25 μl aliquot of the lysate was analyzed for luciferase activity (de Wet et al., Molec. Cell Biol. 7:725, 1987) using a Monolight 2010 luminometer (Analytical Luminescence Laboratories). Accordingly, luciferase light emissions from each aliquot of the lysis homogenate were measured over a ten second period. Activity was expressed as relative light units, values collectively representing the assay conditions, luciferase concentration, luminometer photomultiplier tube sensitivity and background. Using well known techniques, the luciferase light units may be converted, for example, to picograms of luciferase protein. See, e.g., Felgner et al., U.S. Pat. No. 5,580,899 at Example 13.
To perform this study, cationic lipid/nucleic acid/zinc mixtures were prepared by mixing appropriate amounts of serum-free DMEM, cationic liposomes, zinc chloride and pCMV.FOX.Luc.2 plasmid DNA in a polystyrene tube. […]

[1] = charge ratio 0.5, ZnCl2 1000 μM
[2] = charge ratio 0.75, ZnCl2 0.1 μM
[3] = charge ratio 0.75, ZnCl2 100 μM
[4] = charge ratio 0.75, ZnCl2 1000 μM

[Cl-].[Cl-].[Zn+2] [ZnCl2, zinc chloride]
Luciferase activity, Average (charge ratio 0.5, ZnCl2 0.1 μM): 357320 relative light units | Luciferase activity, Average (charge ratio 0.5, ZnCl2 1 μM): 289649.8 relative light units | Luciferase activity, Average (charge ratio 0.5, ZnCl2 10 μM): 296498.3 relative light units | Luciferase activity, Average (charge ratio 0.5, ZnCl2 100 μM): 690512.3 relative light units | Luciferase activity, Average [1]: 44053.75 relative light units | Luciferase activity, Average [2]: 528118.8 relative light units | Luciferase activity, Average (charge ratio 0.75, ZnCl2 1 μM): 141950 relative light units | Luciferase activity, Average (charge ratio 0.75, ZnCl2 10 μM): 397689.3 relative light units | Luciferase activity, Average [3]: 334007.5 relative light units | Luciferase activity, Average [4]: 298625.5 relative light units | Luciferase activity, Average (charge ratio 1, ZnCl2 0.1 μM): 931446.8 relative light units | Luciferase activity, Average (charge ratio 1, ZnCl2 1 μM): 835699.8 relative light units | Luciferase activity, Average (charge ratio 1, ZnCl2 10 μM): 1366067 relative light units | Luciferase activity, Average (charge ratio 1, ZnCl2 100 μM): 359188.5 relative light units | Luciferase activity, Average (charge ratio 1, ZnCl2 1000 μM): 414392 relative light units | Luciferase activity, Average (charge ratio 2, ZnCl2 0.1 μM): 677663.5 relative light units | Luciferase activity, Average (charge ratio 2, ZnCl2 1 μM): 747069.5 relative light units | Luciferase activity, Average (charge ratio 2, ZnCl2 10 μM): 1215879 relative light units | Luciferase activity, Average (charge ratio 2, ZnCl2 100 μM): 827479.8 relative light units | Luciferase activity, Average (charge ratio 2, ZnCl2 1000 μM): 109543.8 relative light units | enhancement of in vitro transfection by added zinc (depending on the cationic lipid to nucleic acid charge ratio): two to forty | Luciferase activity, Trial 1 to Trial 4 (charge ratio 0.5, ZnCl2 0.1 μM): 487868 relative light units and 426369 relative light units and 256897 relative light units and 258146 relative light units | Luciferase activity, Trial 1 to Trial 4 (charge ratio 0.5, ZnCl2 1 μM): 385049 relative light units and 200471 relative light units and 304108 relative light units and 268971 relative light units | Luciferase activity, Trial 1 to Trial 4 (charge ratio 0.5, ZnCl2 10 μM): 325001 relative light units and 323001 relative light units and 250110 relative light units and 287881 relative light units | Luciferase activity, Trial 1 to Trial 4 (charge ratio 0.5, ZnCl2 100 μM): 351939 relative light units and 252969 relative light units and 294018 relative light units and 1863123 relative light units | Luciferase activity, Trial 1 to Trial 4 [1]: 43835 relative light units and 40236 relative light units and 59395 relative light units and 32749 relative light units | Luciferase activity, Trial 1 to Trial 4 [2]: 613179 relative light units and 556656 relative light units and 437658 relative light units and 504982 relative light units | Luciferase activity, Trial 1 to Trial 4 (charge ratio 0.75, ZnCl2 1 μM): 127339 relative light units and 236302 relative light units and 123913 relative light units and 80246 relative light units | Luciferase activity, Trial 1 to Trial 4 (charge ratio 0.75, ZnCl2 10 μM): 455299 relative light units and 465986 relative light units and 362168 relative light units and 307304 relative light units | Luciferase activity, Trial 1 to Trial 4 [3]: 404983 relative light units and 351094 relative light units and 358591 relative light units and 221362 relative light units | Luciferase activity, Trial 1 to Trial 4 [4]: 335343 relative light units and 257292 relative light units and 374511 relative light units and 227356 relative light units | Luciferase activity, Trial 1 to Trial 4 (charge ratio 1, ZnCl2 0.1 μM): 901184 relative light units and 862221 relative light units and 1113520 relative light units and 848862 relative light units | Luciferase activity, Trial 1 to Trial 4 (charge ratio 1, ZnCl2 1 μM): 942667 relative light units and 864670 relative light units and 799992 relative light units and 735470 relative light units | Luciferase activity, Trial 1 to Trial 4 (charge ratio 1, ZnCl2 10 μM): 2145687 relative light units and 1433861 relative light units and 1202748 relative light units and 681970 relative light units | Luciferase activity, Trial 1 to Trial 4 (charge ratio 1, ZnCl2 100 μM): 262768 relative light units and 379927 relative light units and 447492 relative light units and 346567 relative light units | Luciferase activity, Trial 1 to Trial 4 (charge ratio 1, ZnCl2 1000 μM): 437998 relative light units and 443459 relative light units and 502263 relative light units and 273848 relative light units | Luciferase activity, Trial 1 to Trial 4 (charge ratio 2, ZnCl2 0.1 μM): 596911 relative light units and 685311 relative light units and 818392 relative light units and 610040 relative light units | Luciferase activity, Trial 1 to Trial 4 (charge ratio 2, ZnCl2 1 μM): 661803 relative light units and 814409 relative light units and 754168 relative light units and 757898 relative light units | Luciferase activity, Trial 1 to Trial 4 (charge ratio 2, ZnCl2 10 μM): 1498720 relative light units and 1238992 relative light units and 1207690 relative light units and 918114 relative light units | Luciferase activity, Trial 1 to Trial 4 (charge ratio 2, ZnCl2 100 μM): 768327 relative light units and 880621 relative light units and 941720 relative light units and 719251 relative light units | Luciferase activity, Trial 1 to Trial 4 (charge ratio 2, ZnCl2 1000 μM): 199493 relative light units and 48657 relative light units and 189902 relative light units and 123 relative light units
